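These data come from cells grown in 96-well plates and exposed to compound for 48 hours at five concentrations. The concentration for full growth arrest is given as TGI.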
Assays:
Test in all cases: growth of human tumour cells (NCI), 48 h
HT29 colon = tested on: HT29 colon
NCI-H226 lung = tested on: NCI-H226 lung
A549 NSCLC = tested on: A549 NSCLC
MDA-MB-231 breast = tested on: MDA-MB-231 breast
UACC-62 melanoma = tested on: UACC-62 melanoma
NCI-H23 lung = tested on: NCI-H23 lung
786-0 renal = tested on: 786-0 renal
MALME-3M melanoma = tested on: MALME-3M melanoma
UO-31 renal = tested on: UO-31 renal
SN12C renal = tested on: SN12C renal
RPMI-8226 leukemia = tested on: RPMI-8226 leukemia
A498 renal = tested on: A498 renal
BT-549 breast = tested on: BT-549 breast
MDA-MB-435 = tested on: MDA-MB-435
ACHN renal = tested on: ACHN renal
DU-145 prostate = tested on: DU-145 prostate
NCI/ADR-RES ovarian = tested on: NCI/ADR-RES ovarian
SNB-19 CNS = tested on: SNB-19 CNS
KM12 colon = tested on: KM12 colon
UACC-257 melanoma = tested on: UACC-257 melanoma
SK-MEL-2 melanoma = tested on: SK-MEL-2 melanoma
OVCAR-8 ovarian = tested on: OVCAR-8 ovarian
SW-620 colon = tested on: SW-620 colon
PC-3 prostate = tested on: PC-3 prostate
HL-60(TB) leukemia = tested on: HL-60(TB) leukemia
RXF 393 renal = tested on: RXF 393 renal
LOX IMVI melanoma = tested on: LOX IMVI melanoma
SF-295 CNS = tested on: SF-295 CNS
HOP-62 NSCLC = tested on: HOP-62 NSCLC
OVCAR-3 ovarian = tested on: OVCAR-3 ovarian
MDA-N = tested on: MDA-N
CAKI-1 renal = tested on: CAKI-1 renal
HCT-116 colon = tested on: HCT-116 colon
CCRF-CEM leukemia = tested on: CCRF-CEM leukemia
SNB-75 CNS = tested on: SNB-75 CNS
MCF7 breast = tested on: MCF7 breast
SR leukemia = tested on: SR leukemia
U251 CNS = tested on: U251 CNS
SF-539 CNS = tested on: SF-539 CNS
OVCAR-4 ovarian = tested on: OVCAR-4 ovarian
SK-OV-3 ovarian = tested on: SK-OV-3 ovarian
HS 578T breast = tested on: HS 578T breast
SK-MEL-5 melanoma = tested on: SK-MEL-5 melanoma
NCI-H460 lung = tested on: NCI-H460 lung
SK-MEL-28 melanoma = tested on: SK-MEL-28 melanoma
HOP-92 NSCLC = tested on: HOP-92 NSCLC
K-562 leukemia = tested on: K-562 leukemia
M14 melanoma = tested on: M14 melanoma
T-47D breast = tested on: T-47D breast
HCC-2998 colon = tested on: HCC-2998 colon
HCT-15 colon = tested on: HCT-15 colon
IGROV1 ovarian = tested on: IGROV1 ovarian
NCI-H522 lung = tested on: NCI-H522 lung
OVCAR-5 ovarian = tested on: OVCAR-5 ovarian
COLO 205 colon = tested on: COLO 205 colon
SF-268 CNS = tested on: SF-268 CNS
TK-10 renal = tested on: TK-10 renal
MOLT-4 leukemia = tested on: MOLT-4 leukemia
EKVX NSCLC = tested on: EKVX NSCLC

O=C(O)CCC1(C(=O)O)CCC(=O)c2ccccc21 (centres undefined)
TGI (HT29 colon): > 100 µM | TGI (NCI-H226 lung): > 100 µM | TGI (A549 NSCLC): > 100 µM | TGI (MDA-MB-231 breast): > 100 µM | TGI (UACC-62 melanoma): > 100 µM | TGI (NCI-H23 lung): > 100 µM | TGI (786-0 renal): > 100 µM | TGI (MALME-3M melanoma): > 100 µM | TGI (UO-31 renal): > 100 µM | TGI (SN12C renal): > 100 µM | TGI (RPMI-8226 leukemia): > 100 µM | TGI (A498 renal): > 100 µM | TGI (BT-549 breast): > 100 µM | TGI (MDA-MB-435): > 100 µM | TGI (ACHN renal): > 100 µM | TGI (DU-145 prostate): > 100 µM | TGI (NCI/ADR-RES ovarian): > 100 µM | TGI (SNB-19 CNS): > 100 µM | TGI (KM12 colon): > 100 µM | TGI (UACC-257 melanoma): > 100 µM | TGI (SK-MEL-2 melanoma): > 100 µM | TGI (OVCAR-8 ovarian): > 100 µM | TGI (SW-620 colon): > 100 µM | TGI (PC-3 prostate): > 100 µM | TGI (HL-60(TB) leukemia): > 100 µM | TGI (RXF 393 renal): > 100 µM | TGI (LOX IMVI melanoma): > 100 µM | TGI (SF-295 CNS): > 100 µM | TGI (HOP-62 NSCLC): > 100 µM | TGI (OVCAR-3 ovarian): > 100 µM | TGI (MDA-N): > 100 µM | TGI (CAKI-1 renal): > 100 µM | TGI (HCT-116 colon): > 100 µM | TGI (CCRF-CEM leukemia): > 100 µM | TGI (SNB-75 CNS): > 100 µM | TGI (MCF7 breast): > 100 µM | TGI (SR leukemia): > 100 µM | TGI (U251 CNS): > 100 µM | TGI (SF-539 CNS): > 100 µM | TGI (OVCAR-4 ovarian): > 100 µM | TGI (SK-OV-3 ovarian): > 100 µM | TGI (HS 578T breast): > 100 µM | TGI (SK-MEL-5 melanoma): > 100 µM | TGI (NCI-H460 lung): > 100 µM | TGI (SK-MEL-28 melanoma): > 100 µM | TGI (HOP-92 NSCLC): > 100 µM | TGI (K-562 leukemia): > 100 µM | TGI (M14 melanoma): > 100 µM | TGI (T-47D breast): > 100 µM | TGI (HCC-2998 colon): > 100 µM | TGI (HCT-15 colon): > 100 µM | TGI (IGROV1 ovarian): > 100 µM | TGI (NCI-H522 lung): > 100 µM | TGI (OVCAR-5 ovarian): > 100 µM | TGI (COLO 205 colon): > 100 µM | TGI (SF-268 CNS): > 100 µM | TGI (TK-10 renal): > 100 µM

CCOC(=O)c1cc(C)n(CN(CCO)Cn2nc(C(=O)OCC)cc2C)n1
TGI (HT29 colon): 47.4 µM | TGI (A549 NSCLC): > 100 µM | TGI (MDA-MB-231 breast): 91.2 µM | TGI (UACC-62 melanoma): 38.2 µM | TGI (NCI-H23 lung): 53.8 µM | TGI (786-0 renal): 49.7 µM | TGI (MALME-3M melanoma): 96.1 µM | TGI (UO-31 renal): 53.2 µM | TGI (SN12C renal): 79.2 µM | TGI (RPMI-8226 leukemia): 40.3 µM | TGI (A498 renal): > 100 µM | TGI (BT-549 breast): 68.7 µM | TGI (MDA-MB-435): > 100 µM | TGI (ACHN renal): 55.6 µM | TGI (DU-145 prostate): 71.5 µM | TGI (NCI/ADR-RES ovarian): 42.5 µM | TGI (SNB-19 CNS): > 100 µM | TGI (KM12 colon): > 100 µM | TGI (UACC-257 melanoma): > 100 µM | TGI (SK-MEL-2 melanoma): 36.8 µM | TGI (OVCAR-8 ovarian): 59.9 µM | TGI (SW-620 colon): > 100 µM | TGI (PC-3 prostate): > 100 µM | TGI (HL-60(TB) leukemia): > 100 µM | TGI (MOLT-4 leukemia): > 100 µM | TGI (RXF 393 renal): 43.9 µM | TGI (LOX IMVI melanoma): 70.1 µM | TGI (SF-295 CNS): > 100 µM | TGI (HOP-62 NSCLC): 62.9 µM | TGI (OVCAR-3 ovarian): 70.1 µM | TGI (MDA-N): > 100 µM | TGI (CAKI-1 renal): > 100 µM | TGI (HCT-116 colon): 37.7 µM | TGI (CCRF-CEM leukemia): 42.2 µM | TGI (MCF7 breast): 73.7 µM | TGI (SR leukemia): 72.7 µM | TGI (U251 CNS): > 100 µM | TGI (SF-539 CNS): 33.6 µM | TGI (OVCAR-4 ovarian): > 100 µM | TGI (SK-OV-3 ovarian): > 100 µM | TGI (HS 578T breast): > 100 µM | TGI (SK-MEL-5 melanoma): > 100 µM | TGI (NCI-H460 lung): > 100 µM | TGI (SK-MEL-28 melanoma): > 100 µM | TGI (HOP-92 NSCLC): > 100 µM | TGI (K-562 leukemia): 78.3 µM | TGI (M14 melanoma): 44 µM | TGI (T-47D breast): 72.3 µM | TGI (HCC-2998 colon): 27.9 µM | TGI (HCT-15 colon): 48.1 µM | TGI (IGROV1 ovarian): > 100 µM | TGI (NCI-H522 lung): 52.1 µM | TGI (OVCAR-5 ovarian): 54.1 µM | TGI (COLO 205 colon): 41.9 µM | TGI (SF-268 CNS): > 100 µM | TGI (EKVX NSCLC): > 100 µM | TGI (TK-10 renal): > 100 µM

— PubChem BioAssay (NCI)
